This note sets out measurements from ChEMBL document CHEMBL1201862, “PubChem BioAssay data set” (2004).

Each structure is given as a SMILES string.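 Briefly, cells in 96-well plates were exposed to five compound concentrations for 48 h, and endpoints were estimated by linear interpolation. GI50 is the concentration that inhibits growth by half.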 The source made the active and inactive calls. Cut-off read from the data, not from the text of the source: active = GI50 up to about 1.1 µM and inactive = higher. Peptide text beside a SMILES is read from it. * marks the point of attachment. Boc = CC(C)(C)OC(=O)*; OBn = c1ccc(CO*)cc1

Common to all, as to test: DTP human tumour cell line panel, 48 h
In assay [1] the test system is A549.
The test system of assay [2] is CAKI-1.
Assay [3] concerns COLO 205.
Assay [4] has as its system DU-145.
For assay [5], the system named is HCT-116.
Assay [6] deals with HOP-92.
In assay [7] the test system is HT-29.
For assay [8], the system named is KM12.
For assay [9], the system named is LOX IMVI.
The subject of assay [10] is M14.
Assay [11] relates to MCF7.
Assay [12] has as its system MDA-MB-231.
For assay [13], the system named is Malme-3M.
Assay [14] has as its system NCI-H226.
Assay [15] has as its system NCI-H23.
Assay [16] deals with OVCAR-5.
The test system of assay [17] is PC-3.
Assay [18] deals with SF-268.
The subject of assay [19] is SF-539.

By GI50 is commonly meant the concentration at which growth is held to half of that of the control. `CCN(CC)CCCNc1[nH]c2ccccc2c2nc3ccc(OC)cc3c1-2`: the GI50 in assay [1] is 1.43 µM (inactive); in assay [2], 2.71 µM (inactive); in assay [3], 1.32 µM (inactive); in [4], 2.64 µM (inactive); in [5] it was 0.618 µM (active); in assay [6] it was 2.13 µM (inactive). Moreover, the GI50 in [7] is 0.521 µM (active); in [8] it was 0.695 µM (active); in [9] it was 1.11 µM (active); in assay [10], 1.71 µM (inactive); in [11] it was 1.04 µM (active); in assay [12] it was 1.54 µM (inactive). The GI50 in [13] was 1.76 µM (inactive); in [14] it was 3.4 µM (inactive); in assay [15], 1.57 µM (inactive); in assay [16], 1.28 µM (inactive); in assay [17], 1.22 µM (inactive); in [18], 1.77 µM (inactive). Further, the GI50 in assay [19] is 2.16 µM (inactive).

Take `Cc1ccc2c(C)c3ccc4ccccc4c3c[n+]2c1.[O-][Cl+3]([O-])([O-])[O-]`: the GI50 was 16.3 µM (inactive) in [1]; 23.9 µM (inactive) in [2]; 12.2 µM (inactive) in assay [3]; 27.5 µM (inactive) in assay [5]; 17.9 µM (inactive) in [6]; 32.4 µM (inactive) in [7]. Besides, the GI50 in [8] is 2.94 µM (inactive); in [9], 34.6 µM (inactive); in assay [10], 17.9 µM (inactive); in assay [13], 2.88 µM (inactive); in assay [14] it was 5.81 µM (inactive); in assay [15] it was 14.6 µM (inactive). Besides, the figures for the GI50 in [16], in assay [18] and in assay [19] were 51.3 µM (inactive), 2.57 µM (inactive) and 11.5 µM (inactive), respectively.

For the compound `COc1cc(C=C2C(C)=NN(c3cccc(Cl)c3)C23C(Cl)C(=O)N3c2nc3ccccc3s2)ccc1O` (configuration not stated), the GI50 was 26.3 µM (inactive) in assay [2]; 21.9 µM (inactive) in [4]; 19.9 µM (inactive) in assay [5]; 6.7 µM (inactive) in assay [6]; 4.53 µM (inactive) in assay [7]; 5.85 µM (inactive) in assay [8]. The GI50 is 18.1 µM (inactive) in assay [9]; 11.6 µM (inactive) in assay [10]; 28.2 µM (inactive) in [11]; 4.08 µM (inactive) in assay [12]; 22.4 µM (inactive) in [14]; 18.4 µM (inactive) in assay [15]. Also, the GI50 in [16] is 20.7 µM (inactive); in [17], 14.9 µM (inactive); in assay [18], 3.09 µM (inactive); in [19] it was 35.4 µM (inactive).

Regarding `COc1cc(NCc2ccc3oc(=O)c(-c4ccccc4)nc3c2)cc(OC)c1OC`, the GI50 in assay [1], in [2], in [3], in [4], in [5] and in [6] was > 10 µM (inactive) throughout. For the same compound, the GI50 in assay [7], in assay [8], in assay [9], in assay [10], in assay [11] and in assay [12] was > 10 µM (inactive) throughout. Moreover, the GI50 in [14], in assay [15], in [16], in assay [17], in [18] and in [19] was > 10 µM (inactive) in each case.

`COC(=O)Cc1cc(=O)oc2c1C(=O)CCC2`: the GI50 in [1], in [2], in assay [3], in assay [5], in assay [6] and in assay [7] was > 100 µM (inactive) in each case. The GI50 in [8], in [9], in [10], in assay [13], in assay [14] and in assay [15] was > 100 µM (inactive) throughout. The GI50 in assay [16], in assay [18] and in assay [19] was > 100 µM (inactive) each time.

Turning to `Cc1ccc2c(c1)CC1(Cc3c(C)cccc3C1=O)C2=O` (configuration not stated), the GI50 was > 100 µM (inactive) in [1]; > 100 µM (inactive) in assay [3]; > 100 µM (inactive) in assay [4]; > 100 µM (inactive) in assay [5]; 40.2 µM (inactive) in assay [6]; > 100 µM (inactive) in [7]. In addition, the GI50 in assay [8], in assay [9], in [10], in assay [11], in [12] and in assay [13] was > 100 µM (inactive) in each case. Further, the GI50 in assay [14], in [15], in assay [16], in assay [17], in [18] and in assay [19] was > 100 µM (inactive) throughout.

As for `COc1cc(O)c2c(c1)C(=O)C1=C(C2=O)C(O)C[C@@](C)(O)C1` (some centres not stated), the GI50 in assay [1] is 2.34 µM (inactive); in [2], 1.87 µM (inactive); in assay [3] it was 0.264 µM (active); in assay [5], 0.445 µM (active); in [6] it was 1.1 µM (active); in assay [7], 0.475 µM (active). Also, the GI50 was 2.47 µM (inactive) in [8]; 0.424 µM (active) in [9]; 0.871 µM (active) in assay [10]; 0.557 µM (active) in assay [13]; 5.82 µM (inactive) in [14]; 1.53 µM (inactive) in [15]. Besides, the GI50 in assay [16] was 9.95 µM (inactive); in assay [18], 2.01 µM (inactive); in [19], 2.57 µM (inactive).

`CC(NC(=O)C(NC(=O)OC(C)(C)C)C(C)C)C(=O)N1CCCC1C(=O)NCC(=O)NC(C(=O)NCC(=O)OCc1ccccc1)C(C)C` (configuration not stated) (Boc-VAPGVG-OBn; configuration not given here): the GI50 in [2], in assay [3], in assay [4], in assay [5], in assay [6] and in assay [7] was > 100 µM (inactive) throughout. Further, the GI50 in assay [9], in [10], in assay [11], in assay [12], in assay [13] and in [15] was > 100 µM (inactive) throughout. The GI50 in assay [16], in assay [17], in [18] and in [19] was > 100 µM (inactive) in each case.
